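Compound exposure: 48 hours, 5 concentrations, 96-well plates. GI50 = concentration required for 50% inhibition of growth.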 The source made the active and inactive calls. No stated cut-off is given here; in the data, active = GI50 up to about 1.1 µM and inactive = higher.
How the values were obtained:
Assay in all cases: inhibition of tumour cell growth, NCI panel, 48 h
[1] = test system: SK-MEL-28
[2] = test system: MOLT-4
[3] = test system: SF-539
[4] = test system: SN12C
[5] = test system: SK-MEL-5
[6] = test system: RPMI-8226
[7] = test system: UO-31
[8] = test system: HOP-62
[9] = test system: KM12
[10] = test system: HCT-15
[11] = test system: COLO 205
[12] = test system: SNB-75
[13] = test system: SF-295
[14] = test system: UACC-257
[15] = test system: LOX IMVI
[16] = test system: HCT-116
[17] = test system: NCI-H23
[18] = test system: UACC-62
[19] = test system: HT-29
[20] = test system: CAKI-1

CC(=O)Nc1ccc(/C=C/c2ccc(NC(=O)Nc3ccc(/C=C/c4ccc(NC(C)=O)cc4S(=O)(=O)O)c(S(=O)(=O)O)c3)cc2S(=O)(=O)O)c(S(=O)(=O)O)c1
GI50 [1]: > 100 µM (inactive) | GI50 [2]: > 100 µM (inactive) | GI50 [3]: > 100 µM (inactive) | GI50 [4]: > 100 µM (inactive) | GI50 [5]: > 100 µM (inactive) | GI50 [6]: > 100 µM (inactive) | GI50 [7]: > 100 µM (inactive) | GI50 [8]: > 100 µM (inactive) | GI50 [9]: > 100 µM (inactive) | GI50 [10]: 45.8 µM | GI50 [11]: > 100 µM (inactive) | GI50 [12]: 53.8 µM (inactive) | GI50 [13]: > 100 µM (inactive) | GI50 [14]: > 100 µM (inactive) | GI50 [15]: > 94.2 µM (inactive) | GI50 [16]: > 100 µM (inactive) | GI50 [17]: > 100 µM (inactive) | GI50 [18]: > 100 µM (inactive) | GI50 [19]: > 100 µM (inactive)

CC(=O)OC1CC2(O)C(CCC3(C)C(c4ccc(=O)oc4)CCC32O)C2(C)CCC(O)C=C12 (stereo unspecified)
GI50 [1]: 0.0375 µM (active) | GI50 [2]: 0.00182 µM (active) | GI50 [3]: 0.00775 µM (active) | GI50 [4]: 0.00462 µM (active) | GI50 [5]: 0.00439 µM (active) | GI50 [6]: 0.00993 µM (active) | GI50 [7]: 0.0297 µM (active) | GI50 [8]: 0.0375 µM (active) | GI50 [10]: 0.0239 µM | GI50 [11]: 0.0385 µM (active) | GI50 [12]: 0.0317 µM (active) | GI50 [20]: 0.0375 µM (active) | GI50 [13]: 0.00955 µM (active) | GI50 [14]: 0.0242 µM (active) | GI50 [15]: 0.0191 µM (active) | GI50 [16]: 0.0375 µM (active) | GI50 [17]: 0.00246 µM (active) | GI50 [18]: 0.024 µM (active) | GI50 [19]: 0.0239 µM (active)

COc1ccc(C(=O)Cc2cc(OC)ccc2OC)cc1
GI50 [2]: > 100 µM (inactive) | GI50 [3]: > 100 µM (inactive) | GI50 [4]: > 100 µM (inactive) | GI50 [5]: > 100 µM (inactive) | GI50 [6]: 75.3 µM (inactive) | GI50 [7]: > 100 µM (inactive) | GI50 [8]: 66.1 µM (inactive) | GI50 [10]: > 100 µM | GI50 [11]: > 100 µM (inactive) | GI50 [12]: 29 µM (inactive) | GI50 [20]: > 100 µM (inactive) | GI50 [13]: 48.9 µM (inactive) | GI50 [14]: > 100 µM (inactive) | GI50 [15]: > 100 µM (inactive) | GI50 [16]: > 100 µM (inactive) | GI50 [17]: > 100 µM (inactive) | GI50 [18]: > 100 µM (inactive) | GI50 [19]: > 100 µM (inactive)

CCP(=S)(CC)CCl
GI50 [1]: > 100 µM (inactive) | GI50 [2]: > 10 µM (inactive) | GI50 [4]: > 100 µM (inactive) | GI50 [5]: > 100 µM (inactive) | GI50 [6]: > 100 µM (inactive) | GI50 [7]: > 100 µM (inactive) | GI50 [8]: > 100 µM (inactive) | GI50 [10]: > 100 µM | GI50 [11]: > 100 µM (inactive) | GI50 [12]: > 100 µM (inactive) | GI50 [20]: > 100 µM (inactive) | GI50 [13]: > 100 µM (inactive) | GI50 [14]: > 100 µM (inactive) | GI50 [15]: > 100 µM (inactive) | GI50 [16]: > 100 µM (inactive) | GI50 [17]: > 100 µM (inactive) | GI50 [19]: > 100 µM (inactive)

CN1CN(C(=O)N2CN(C)C(=O)N(C)C2)CN(C)C1=O
GI50 [1]: > 100 µM (inactive) | GI50 [2]: > 100 µM (inactive) | GI50 [3]: > 100 µM (inactive) | GI50 [4]: > 100 µM (inactive) | GI50 [6]: > 100 µM (inactive) | GI50 [7]: > 100 µM (inactive) | GI50 [8]: > 100 µM (inactive) | GI50 [9]: > 100 µM (inactive) | GI50 [10]: > 100 µM | GI50 [11]: > 100 µM (inactive) | GI50 [12]: > 100 µM (inactive) | GI50 [20]: > 100 µM (inactive) | GI50 [13]: > 100 µM (inactive) | GI50 [14]: > 100 µM (inactive) | GI50 [15]: > 100 µM (inactive) | GI50 [16]: > 100 µM (inactive) | GI50 [18]: > 100 µM (inactive) | GI50 [19]: > 100 µM (inactive)

CC(=O)OC1CC[C@@]2(C)C(=CC[C@@H]3[C@@H]2CC[C@]2(C)Nc4nn(S(C)(=O)=O)cc4C[C@@H]32)C1 (stereo partly specified)
GI50 [1]: 28.4 µM (inactive) | GI50 [2]: 16.1 µM (inactive) | GI50 [4]: 59.7 µM (inactive) | GI50 [5]: 15.2 µM (inactive) | GI50 [6]: 30 µM (inactive) | GI50 [7]: 37 µM (inactive) | GI50 [8]: 43.9 µM (inactive) | GI50 [9]: 31.8 µM (inactive) | GI50 [10]: 24.2 µM | GI50 [11]: 35.7 µM (inactive) | GI50 [12]: 24.2 µM (inactive) | GI50 [20]: 40.1 µM (inactive) | GI50 [13]: 34 µM (inactive) | GI50 [17]: 35.1 µM (inactive) | GI50 [18]: 21.8 µM (inactive) | GI50 [19]: 11.6 µM (inactive)

CC(C(=O)OCc1ccccc1)N(Cc1ccccc1)Cc1ccccc1 (stereo unspecified)
GI50 [1]: > 100 µM (inactive) | GI50 [2]: 33 µM (inactive) | GI50 [3]: > 100 µM (inactive) | GI50 [4]: > 100 µM (inactive) | GI50 [5]: 43.1 µM (inactive) | GI50 [6]: 35.9 µM (inactive) | GI50 [7]: 75.3 µM (inactive) | GI50 [8]: > 100 µM (inactive) | GI50 [9]: 58.7 µM (inactive) | GI50 [10]: > 100 µM | GI50 [11]: > 100 µM (inactive) | GI50 [12]: 42.7 µM (inactive) | GI50 [20]: > 100 µM (inactive) | GI50 [13]: > 100 µM (inactive) | GI50 [14]: 33.7 µM (inactive) | GI50 [16]: > 100 µM (inactive) | GI50 [17]: 45.2 µM (inactive) | GI50 [18]: > 100 µM (inactive) | GI50 [19]: 46.8 µM (inactive)

CC1(C)CC2(CC(C)(C)N1O)NC(=O)OC2=O
GI50 [1]: > 100 µM (inactive) | GI50 [2]: > 100 µM (inactive) | GI50 [3]: > 100 µM (inactive) | GI50 [4]: > 100 µM (inactive) | GI50 [5]: > 100 µM (inactive) | GI50 [6]: > 100 µM (inactive) | GI50 [7]: > 100 µM (inactive) | GI50 [8]: > 100 µM (inactive) | GI50 [9]: > 100 µM (inactive) | GI50 [10]: > 100 µM | GI50 [11]: > 100 µM (inactive) | GI50 [12]: > 67.3 µM (inactive) | GI50 [20]: > 100 µM (inactive) | GI50 [13]: > 100 µM (inactive) | GI50 [14]: > 100 µM (inactive) | GI50 [15]: > 100 µM (inactive) | GI50 [16]: > 100 µM (inactive) | GI50 [17]: > 100 µM (inactive) | GI50 [18]: > 100 µM (inactive) | GI50 [19]: > 100 µM (inactive)

From ChEMBL document CHEMBL1201862, “PubChem BioAssay data set” (2004)
